Measured values from patent publication US10034895B2 (priority 2017, dated 2018).

Legend:
HeLa cells (ATCC CCL-2) = test: Trypan blue viability study of cultured HeLa cells
Protocol: (§1) Cells for culture were obtained from the Cell Culture Facility at Duke University. PLLA was microwave synthesized from L-lactic acid as previously reported. Lactic acid concentration was measured by tetrazolium indicator color test strips (Accuvin, LLC, Napa, Calif.) from the reaction of L-lactic acid and […] in the presence of lactate dehydrogenase. All cells were cultured at 37° C. and 5% CO2 in a HERA cell incubator (Kendro Laboratory Products, L.P., Newtown, Conn.). Media for cells was Minimum Essential Media with Earl's salts and L-Glutamine (Gibco, Life Technologies) with 10% fetal bovine serum and non-essential amino acids and sodium pyruvate. Antibiotics for experiment #2 were penicillin/streptomycin and for experiments #3-4 were penicillin/streptomycin/amphotericin B. All drug testing was performed in Costar 6 Well Culture Cluster plates (Corning, Corning, N.Y.). The trypan blue concentration was 0.4%.
HeLa cells (ATCC CCL-2) were cultured on six well plates. […] The cells were incubated for 12 hours, after which time they were stained with 1 ml trypan blue for two minutes. The media and trypan blue were aspirated from each well, and the cells were then placed under an inverted microscope for photography.

[1] = test system: Normal human fibroblast cells (ATCC CCL-171); test: Trypan blue viability study of normal human fibroblast cells; conditions: for cytotoxicity of D-lactic acid dimer compared with L-lactic acid: cultured normal fibroblasts, FIGS. 13-16; for Cell characteristic: cells non-viable (trypan blue): normal fibroblasts, 12 hours
Protocol: as §1
Normal human fibroblast cells (ATCC CCL-171) were subcultured onto six well plates. […] The cells were incubated for 12 hours after which time they were stained with 1 ml trypan blue for two minutes. The media and trypan blue were aspirated from each well, and the cells were then placed under an inverted microscope for photography.

[2] = Stereocomplex reaction of L-lactic acid + D-lactic acid dimer (tetrazolium L-lactic acid test strips); conditions: room temperature, two minutes
Protocol: as §1
The reactions were carried out at room temperature and allowed to incubate for two minutes after which 20 microliters were applied to L-lactic acid test strips, and the results were read after two minutes.

[3] = test system: Human retinoblastoma cells (ATCC C-33A); test: Trypan blue viability study of human retinoblastoma cells (dose response); conditions: conclusion of Experiment 3
Protocol: (§2) Cells for culture were obtained from the Cell Culture Facility at Duke University. […] All cells were cultured at 37° C. and 5% CO2 in a HERA cell incubator (Kendro Laboratory Products, L.P., Newtown, Conn.). Media for cells was Minimum Essential Media with Earl's salts and L-Glutamine (Gibco, Life Technologies) with 10% fetal bovine serum and non-essential amino acids and sodium pyruvate. Antibiotics for experiment #2 were penicillin/streptomycin and for experiments #3-4 were penicillin/streptomycin/amphotericin B. All drug testing was performed in Costar 6 Well Culture Cluster plates (Corning, Corning, N.Y.). The trypan blue concentration was 0.4%.
(§3) Human retinoblastoma cells (ATCC C-33A) were cultured in six well plates. […] The cells were incubated for 12 hours after which time they were stained with 1 ml trypan blue for two minutes. The media and trypan blue were aspirated from each well, and the cells were examined with an inverted microscope for photography.

[4] = test system: Human retinoblastoma cells; test: as above; conditions: 12 hours
Protocol: as §2, §3

Row | Structure (SMILES) | concentration at which cytotoxic when applied to HeLa cells (HeLa cells (ATCC CCL-2); HeLa, conclusion of Experiment 2) [µg/mL] | cytotoxicity compared to PLLA (HeLa cells (ATCC CCL-2); cultured HeLa cells, FIGS. 2 & 3) | concentration at which selectively cytotoxic when locally applied to cancer cells (HeLa cells (ATCC CCL-2); summary over cancer cells (HeLa and retinoblastoma)) [µg/mL] | cytotoxicity of D-lactic acid dimer compared with L-lactic acid [1] | Cell characteristic: cells non-viable (trypan blue) ([1]; 1.50 mg in 1 ml media) [% cells non-viable] | Cell characteristic: cells non-viable (trypan blue) ([1]; 12.5 mg in 1 ml media) [% cells non-viable] | Cell characteristic: cells non-viable (trypan blue) ([1]; 25 mg in 1 ml media) [% cells non-viable] | Tetrazolium indicator (L-lactic acid remaining) ([2]; 0.5 mg dimer in 40 microliters of 10 mM L-lactic acid) [mg/L] | Tetrazolium indicator (L-lactic acid remaining) ([2]; 1.0 mg dimer in 40 microliters of 10 mM L-lactic acid) | Tetrazolium indicator (L-lactic acid remaining) ([2]; 5.0 mg dimer in 40 microliters of 10 mM L-lactic acid) | Tetrazolium indicator (L-lactic acid remaining) ([2]; 7.0 mg dimer in 40 microliters of 10 mM L-lactic acid) | effective cytotoxic dose / concentration on human retinoblastoma cells [3] | Trypan blue staining for non-viable cells ([4]; 6.25 mg in 1 ml media) | Trypan blue staining for non-viable cells ([4]; 25 mg in 1 ml media)
1 | C[C@@H](O)C(=O)O[C@H](C)C(=O)O [D-lactic acid dimer] | ≥ 5000 | more cytotoxic than a mixture of PLLA oligomers | 5000 to 6250 | less cytotoxic on a molar basis than L-lactic acid | 0 | 100 | 100 | 80 | no color change | no color change | no color change | greater than 6.25 mg/ml | Thirty | Fifty
2 | C[C@H](O)C(=O)O [L-lactic acid, reference compound] | – | – | – | more cytotoxic than D-lactic acid dimer | – | – | – | – | – | – | – | – | – | –
